Data set [1] relates to ACC1. As to conditions: ACC isolated from rat, mouse, monkey and human; cited from earlier work.
For data set [2], the system named is ACC2. As to conditions: ACC isolated from rat, mouse, monkey and human; cited from earlier work.
Data set [3] in a line: Pharmacokinetic evaluation of compounds in rats. As to conditions: SD rats. It is filed as in vivo. An excerpt: This example was intended to investigate the pharmacokinetics of the compounds of the present invention and ND630 in SD rats under the conditions of intravenous (iv) and intragastric administration (po). Unless otherwise stated, the experimental reagents and instruments are all commercially available. ND630 was Gilead's acetyl CoA carboxylase (ACC) inhibitor, with a structural formula as follows: […]
Formulation of compound: by taking a physiological saline solution of 5% DMSO+5% Solutol HS 15+90% HP-β-CD (20% w/v) as a solvent, a compound with the final concentration of 0.4 mg/mL was formulated for intravenous administration and a compound with the final concentration of 1 mg/mL was formulated for orally intragastric administration.
Animal feeding and management: male SD rats aged 6-8 weeks and weighing between 180-250 g were selected and raised in transparent resin plastic rate cages. Before administration, the rats were fasted overnight for at least 16 hours, and the feed supply was restored 4 hours after administration.
For the intravenous injection administration group, the dose was 2 mg/kg, and 0.2 mL of blood samples was collected from the jugular vein 5 min, 15 min, 30 min, 1 h, 3 h, 5 h, and 8 h after dosage. For the orally intragastric administration group, the dose was 10 mg/kg, and 0.2 mL of blood samples was collected from the jugular vein 15 min, 30 min, 1 h, 3 h, 5 h, 8 h, 12 h, and 24 h after dosage; and liver tissues were collected 1 h, 3 hand 24 h after dosage.
After the blood were sampled, the plasma was quickly separated by centrifugation at 4000 rpm (10 minutes, 4° C.). After the liver tissues were sampled, a mixture of methanol:water (1:1, v/v) three times the volume of the liver tissues was added to prepare a homogenate. 50 μL of plasma or homogenate sample was drawn, and 200 μL of an internal standard (30 ng/mL terfenadine, and acetonitrile) was added for precipitation. Centrifuging was carried out at 4° C. and 15,400 g for 10 minutes, and a supernatant was taken for analysis.
The concentration of a target compound was detected by LC-MS/MS. According to the plasma concentration-time curve, pharmacokinetic parameters were calculated by using a non-compartmental model (NCA) of software WinNonlin 7.0. […] Table 4. Pharmacokinetic results

Another data set deals with HepG2 cells. In words: [2-14C]-acetate incorporation assay in HepG2 cells. The data set is classed as cell-based. As to conditions: for IC50: Homo sapiens, HepG2 cells, read-out: IC50 [2-14C]-acetate binding assay. Here is the method: [2-^14C]-Acetate Incorporation Assay in HepG2 Cells
DMEM (GIBCO, catalog number: 11965-092) was used as a complete culture medium for HepG2 cells (ATCC, catalog number: HB-8064). 10% fetal bovein serum (FBS, GIBCO, catalog number: 10099-141), penicillin (100 units/mL) and streptomycin (100 μg/mL) (Pen/Strep, GIBCO, catalog number: 15140-122) were added to a DMEM culture medium.
HepG2 cells were cultured in a 37° C. incubator holding 5% carbon dioxide, and passaged every 2-3 days.
The HepG2 cells were spread on a 24-well plate (Corning, catalog number: 3524) at a density of 2×10^5 cells-well, 500 μL per well, and cultured in a 37° C. incubator holding 5% carbon dioxide. On the fourth day of culture, 50 μL of a compound diluted at a gradient of 1:3 was added, with the final concentration of DMSO of 0.5% (v/v); and the cells were cultured for 1 hour in the incubator. 1 μCi [2-^14C]-sodium acetate (Perkin Elmer, catalog number: NEC085H001MC) was added to each well, and culture was conducted for another 5 hours. The culture medium in each well was transferred to a 15 mL centrifugal tube (BD, catalog number: 352096); 0.5 mL of 0.1 M NaOH was added; the cells were blown and washed repeatedly, and then transferred to new centrifugal tubes. Then, 1 mL of ethanol and 0.17 mL of 50% KOH solution were added to each centrifugal tube, which was then treated in a water bath at 90° C. for 1 hour. Next, the mixture was cooled to room temperature; 5 mL of petroleum ether was added to each centrifugal tube, which was turned upside down several times for mixing; the resulting mixture was centrifuged for 5 minutes (Eppendorf, Model: 5702, 1000 rpm); and an upper organic phase was discarded. 1 mL of concentrated hydrochloric acid was added to each centrifugal tube and centrifuged for 5 minutes, and 4 mL of petroleum ether was transferred into a glass tube (18×180 mm). The sample in the glass tube was dried at 64° C., and then dissolved and resuspended by addition of 400 μL of spotting solution (chloroform:n-hexane=1:1). 50 μL of the dissolved sample was drawn by a pipette (BIOHIT, Model: Proline Plus), and spotted onto an Isoplate-96-microwell plate (Perkin Elmer, catalog number: 6005040), and 200 μL of ULTIMA GOLD scintillation solution (Perkin Elmer, catalog number: 77-16061) was added, standing for 5 minutes. Finally, MicroBeta (PerkinElmer, Model: 2450) was used to read scintillation signals.
A 4-parameter logistic model or sigmoidal dose-response model in XLFit 5.3.1.3 (2006-2011 I D Business Solutions Limited) was used to fit IC50: fit=(A+((B−A)/(1+((C/x)^D)))); where the x-axis represented the log of compound concentration, and the y-axis represented count per minute (CPM).

Data set [4] concerns the target ACC2 (Homo sapiens (Human), UniProt O00763). In words: In vitro ACC inhibition assay (ADP-Glo), ACC2. It is filed as biochemical. Here is the method:
(§1) An exemplary procedure for the in vitro ACC inhibition assay, which can be used to determine the inhibitory action of the compounds of the invention toward either ACC1 or ACC2, is as follows. The ADP-Glo™ kinase assay kit from Promega was used. The ADP-Glo™ kinase assay is a luminescent ADP detection assay to measure enzymatic activity by quantifying the amount of ADP produced during an enzyme reaction. The assay was performed in two steps; first, after the enzyme reaction, an equal volume of ADP-Glo™ reagent was added to terminate the reaction and deplete the remaining ATP. Then, the kinase detection reagent was added to simultaneously convert ADP to ATP and allow the newly synthesized ATP to be measured using a luciferase/luciferin reaction. Luminescence can be correlated to ADP concentrations by using an ATP-to-ADP conversion curve. The detailed procedure was as follows. 4.5 μL of a working solution was added to a 384-well plate. The compound was diluted at 1:3 in succession in DMSO. 0.5 μL of diluted compound solution was added to a 384-well white Optiplate assay plate. The plates were incubated at room temperature for 15 minutes. 5 μL of substrate working solution was added to each well to initiate the reaction. A final ACC reaction solution consisted of: 0.5 nM ACC, 10 μM ATP, 5 μM acetyl-CoA, and 15 mM NaHCO3; and the final concentrations of the compound were measured as follows: 1 μM, 0.333 μM, 0.111 μM, 0.037 μM, 0.0123 μM, 0.00411 μM, 0.00137 μM, 0.000457 μM, 0.000152 μM, and 0.000051 μM. The plates were incubated at room temperature for 30 minutes. 10 μL of ADP-Glo™ reagent was added, and the plates were incubated at room temperature for 40 minutes. 20 μL of kinase detection reagent was added. The plates were incubated at room temperature for 40 minutes, then read on a Perkin Elmer EnVision 2104 plate reader for luminescence in relative light unit (RLU).
(§2) Data for each concentration, as well as the positive and negative controls were averaged, and the standard deviation was calculated. Percent inhibition was calculated by the formula: 100×(average negative control−compound)/(average negative control−average positive control). The IC50 for each compound was calculated by fitting the data with a non-linear regression equation: Y=Bottom+(Top−Bottom)/(1+10^((Log IC50−X)×HillSlope)), where X is the log of compound concentration and Y is the percent inhibition.
A general note: ADP-Glo turns the ADP formed in a reaction into a luminescent signal.

The target of data set [5] is ACC1 (Homo sapiens (Human), UniProt Q13085). The data set is described as follows: In vitro ACC inhibition assay (ADP-Glo), ACC1. The data set is classed as biochemical. On the procedure:
as §1, §2

Like-named read-outs stand apart in the source and are kept apart here.

Sequence of ACC2 (Homo sapiens (Human), UniProt O00763) (O00763 whole entry, species assumed): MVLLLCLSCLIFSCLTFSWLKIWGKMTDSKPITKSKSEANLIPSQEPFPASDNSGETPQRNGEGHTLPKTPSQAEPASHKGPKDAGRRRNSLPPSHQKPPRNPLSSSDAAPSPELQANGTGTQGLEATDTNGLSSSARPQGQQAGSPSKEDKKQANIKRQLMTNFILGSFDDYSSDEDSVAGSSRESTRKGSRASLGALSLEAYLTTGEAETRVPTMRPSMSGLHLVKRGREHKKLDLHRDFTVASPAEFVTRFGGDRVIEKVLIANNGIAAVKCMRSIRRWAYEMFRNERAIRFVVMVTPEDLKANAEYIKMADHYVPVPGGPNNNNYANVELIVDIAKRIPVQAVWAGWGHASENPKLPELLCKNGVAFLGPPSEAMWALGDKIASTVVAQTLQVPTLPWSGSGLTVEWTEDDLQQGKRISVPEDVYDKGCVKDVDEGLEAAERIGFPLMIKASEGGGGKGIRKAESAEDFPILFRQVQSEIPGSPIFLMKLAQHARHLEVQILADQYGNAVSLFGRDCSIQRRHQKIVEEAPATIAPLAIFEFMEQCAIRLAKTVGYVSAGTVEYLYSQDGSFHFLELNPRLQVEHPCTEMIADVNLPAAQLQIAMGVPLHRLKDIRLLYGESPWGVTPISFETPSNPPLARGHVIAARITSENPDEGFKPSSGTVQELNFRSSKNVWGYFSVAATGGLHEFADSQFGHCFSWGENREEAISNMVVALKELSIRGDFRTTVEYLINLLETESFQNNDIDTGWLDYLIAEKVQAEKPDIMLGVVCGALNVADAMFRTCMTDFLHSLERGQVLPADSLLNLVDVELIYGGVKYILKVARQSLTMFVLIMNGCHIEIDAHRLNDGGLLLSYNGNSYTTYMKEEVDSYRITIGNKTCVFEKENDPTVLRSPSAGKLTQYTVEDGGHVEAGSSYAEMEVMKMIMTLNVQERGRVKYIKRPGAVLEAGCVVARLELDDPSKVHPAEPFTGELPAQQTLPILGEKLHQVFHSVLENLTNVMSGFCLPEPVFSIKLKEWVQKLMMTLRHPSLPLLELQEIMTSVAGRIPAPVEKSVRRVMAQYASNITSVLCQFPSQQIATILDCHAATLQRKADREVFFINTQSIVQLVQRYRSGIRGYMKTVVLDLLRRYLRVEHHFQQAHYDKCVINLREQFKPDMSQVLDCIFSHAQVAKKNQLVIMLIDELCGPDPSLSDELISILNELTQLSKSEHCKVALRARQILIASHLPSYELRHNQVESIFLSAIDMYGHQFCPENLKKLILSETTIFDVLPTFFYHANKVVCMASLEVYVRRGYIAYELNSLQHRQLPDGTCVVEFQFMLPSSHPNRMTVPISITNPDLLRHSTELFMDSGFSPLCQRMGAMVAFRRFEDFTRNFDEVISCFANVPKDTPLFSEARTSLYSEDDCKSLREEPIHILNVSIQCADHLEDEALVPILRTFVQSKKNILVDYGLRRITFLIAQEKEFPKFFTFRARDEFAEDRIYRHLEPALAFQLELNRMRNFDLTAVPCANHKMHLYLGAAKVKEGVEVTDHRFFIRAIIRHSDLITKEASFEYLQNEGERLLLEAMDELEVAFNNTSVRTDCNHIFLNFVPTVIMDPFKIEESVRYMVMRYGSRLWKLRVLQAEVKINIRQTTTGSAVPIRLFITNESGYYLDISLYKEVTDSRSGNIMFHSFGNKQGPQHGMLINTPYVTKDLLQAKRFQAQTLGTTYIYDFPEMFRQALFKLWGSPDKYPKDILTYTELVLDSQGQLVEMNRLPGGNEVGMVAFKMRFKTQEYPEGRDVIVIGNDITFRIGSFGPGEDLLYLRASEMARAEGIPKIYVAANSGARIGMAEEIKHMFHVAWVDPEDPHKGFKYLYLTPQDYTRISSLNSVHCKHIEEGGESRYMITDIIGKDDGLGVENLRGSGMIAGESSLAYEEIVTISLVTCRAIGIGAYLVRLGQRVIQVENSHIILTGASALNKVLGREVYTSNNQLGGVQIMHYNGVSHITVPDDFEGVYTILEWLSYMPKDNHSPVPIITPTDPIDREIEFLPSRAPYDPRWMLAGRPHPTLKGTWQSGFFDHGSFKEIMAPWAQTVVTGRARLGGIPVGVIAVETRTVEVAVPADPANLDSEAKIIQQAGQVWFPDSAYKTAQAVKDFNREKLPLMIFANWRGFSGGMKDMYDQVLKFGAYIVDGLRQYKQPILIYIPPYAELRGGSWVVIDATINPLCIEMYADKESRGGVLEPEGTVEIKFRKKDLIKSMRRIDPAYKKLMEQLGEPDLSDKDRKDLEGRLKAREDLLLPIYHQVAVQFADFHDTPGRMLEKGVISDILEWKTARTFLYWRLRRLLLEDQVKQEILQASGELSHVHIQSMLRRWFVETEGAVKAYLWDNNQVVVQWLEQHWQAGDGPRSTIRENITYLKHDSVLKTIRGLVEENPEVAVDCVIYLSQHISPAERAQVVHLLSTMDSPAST

Usually IC50 stands for the midpoint of a concentration-inhibition curve. With `O=C(c1c2ccccc2cc2ccccc12)N1CCC(N2CCC[C@@H](C(=O)N3CCOCC3)C2)CC1` [CP-640186], the concentration for half-maximal inhibition (IC50) in the data set on ACC1 [1] and in the data set with ACC2 [2] was ~60 nM throughout.
By Cmax is commonly meant the peak of the concentration-time curve. The term Tmax denotes the time at which the peak concentration occurs. What is called bioavailability is dose-corrected exposure relative to a reference, in per cent. In data set [3], `COc1ccccc1[C@H](Cn1c(=O)n(C(C)(C)C(=O)O)c(=O)c2c(C)c(-c3ncco3)sc21)OC1CCOCC1` [ND630, reference compound] came in with a Cl of 12.2 mL/min/kg. Also, the Kp in data set [3] (male, rat, liver/plasma, po 10 mg/kg, liver collected 1 h, 3 h and 24 h after dosage, read-out: L/P liver-to-blood ratio) was 5.5 to 41.9. For the same compound, the Vd in data set [3] (male, rat, plasma, intravenous, 2 mg/kg, read-out: Vss) came out at 0.48 L/kg. Besides, the AUC(0-inf) in data set [3] (male, rat, plasma, iv 2 mg/kg, read-out: AUC0-∞ (iv)) was 2870 ng·h/mL; in data set [3] (male, rat, plasma, po 10 mg/kg, read-out: AUC0-∞ (po)) it was 5090 ng·h/mL. For the same compound, the Cmax in data set [3] (male, rat, plasma, iv 2 mg/kg, read-out: Cmax (iv)) turned out to be 5630 ng/mL; in data set [3] (male, rat, plasma, po 10 mg/kg, read-out: Cmax (po)), 2880 ng/mL. In addition, the Tmax in data set [3] (male, rat, plasma, iv 2 mg/kg, read-out: Tmax (iv)) worked out at 4.98 min; in data set [3] (male, rat, plasma, po 10 mg/kg, read-out: Tmax (po)), 24 min. For the same compound, the half-life is 63.6 min in data set [3] (male, rat, plasma, iv 2 mg/kg, read-out: t1/2 (iv) (converted)) and 39 min in data set [3] (male, rat, plasma, po 10 mg/kg, read-out: t1/2 (po) (converted)). In addition, the bioavailability in data set [3] (male, rat, plasma, po 10 mg/kg, iv 2 mg/kg, read-out: F (%) bioavailability) was 35.8%.
Consider `COc1ccccc1[C@H](Cn1c(=O)n(CC2CC(C(=O)O)C2)c(=O)c2c(C)c(-c3ncco3)sc21)OC1CCOCC1` (stereo partly drawn) [c-1, (R)-3-((1-(2-(2-methoxyphenyl)-2-((tetrahydro-2H-pyran-4-yl)oxy)ethyl)-5-methyl-6-(oxazol-2-yl)-2,4-dioxa-1,4-dihydrothieno[2,3-d]pyrimidine-3(2H)-yl)methyl)cyclobutane-1-carboxylic acid], for which the IC50 in the data set on HepG2 cells was 232 nM.
Consider `COc1ccccc1[C@H](Cn1c(=O)n(C2CC(CC(=O)O)C2)c(=O)c2c(C)c(-c3ncco3)sc21)OC1CCOCC1` (stereo partly drawn) [c-3, (R)-2-(3-(1-(2-(2-methoxyphenyl)-2-((tetrahydro-2H-pyran-4-yl)oxy)ethyl)-5-methyl-6-(oxazol-2-yl)-2,4-dioxo-1,4-dihydrothieno[2,3-d]pyrimidine-3(2H)-yl)cyclobutyl)acetic acid], for which, at ACC2 [4], the “inhibitory properties against ACC2 (in words)” value is given as “good inhibitory properties”. For the same compound, the IC50 worked out at 3 nM on ACC2 [4] (0.5 nM ACC, 10 μM ATP, 5 μM acetyl-CoA, read-out: Enzymatic activity IC50 ACC2); 18.5 nM in the data set on HepG2 cells; 0.688 nM on ACC1 [5] (0.5 nM ACC, 10 μM ATP, 5 μM acetyl-CoA, read-out: Enzymatic activity IC50 ACC1). In addition, the “inhibitory properties against HepG2 cells (in words)” value in the data set on HepG2 cells was “good inhibitory properties”. On ACC1 [5], the “inhibitory properties against ACC1 (in words)” value is listed as “good inhibitory properties”.

(Values after patent US12384798B2, “ACC inhibitor and use thereof” (NANJING RUIJIE PHARMA CO., LTD., priority 2019, dated 2025).)
